{"source": "patent US20120129843A1", "about": "“PYRIDYL-THIAZOLYL INHIBITORS OF PRO-MATRIX METALLOPROTEINASE ACTIVATION” (priority 2010, published 2012)", "key": {"[1]": {"target": "T1, MMP9 processing by HFL-1 cells (Homo sapiens, UniProt P14780)", "T1 construct": "host or cells: HFL-1 human fetal lung fibroblasts, TNFα plus neutrophil elastase", "T1 sequence (P14780 20-707)": "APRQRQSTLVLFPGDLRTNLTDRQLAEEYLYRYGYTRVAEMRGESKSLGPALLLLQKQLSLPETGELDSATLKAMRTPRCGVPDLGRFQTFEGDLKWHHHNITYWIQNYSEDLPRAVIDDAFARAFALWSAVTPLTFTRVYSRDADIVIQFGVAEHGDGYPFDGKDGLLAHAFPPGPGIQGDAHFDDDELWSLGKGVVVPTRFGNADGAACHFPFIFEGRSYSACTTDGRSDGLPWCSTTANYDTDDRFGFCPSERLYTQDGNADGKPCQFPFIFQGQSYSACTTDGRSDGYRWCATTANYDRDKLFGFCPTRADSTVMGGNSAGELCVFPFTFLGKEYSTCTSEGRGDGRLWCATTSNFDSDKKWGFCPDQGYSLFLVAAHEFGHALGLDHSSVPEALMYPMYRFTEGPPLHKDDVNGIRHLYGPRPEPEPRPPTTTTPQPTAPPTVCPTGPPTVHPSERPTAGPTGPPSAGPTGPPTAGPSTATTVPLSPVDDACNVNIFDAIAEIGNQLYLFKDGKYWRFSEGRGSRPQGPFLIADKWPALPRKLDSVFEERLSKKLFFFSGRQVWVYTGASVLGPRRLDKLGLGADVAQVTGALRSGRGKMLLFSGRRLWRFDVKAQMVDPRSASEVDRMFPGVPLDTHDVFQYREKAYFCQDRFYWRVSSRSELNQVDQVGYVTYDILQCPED", "assay": "Activation of proMMP9 by human fetal lung fibroblast (HFL-1) cultures (Western blot)", "type": "cell-based", "conditions": "3.3 μM, 30 nM elastase, final 72 hrs; mAb-L51/82", "procedure": "Compound-α was assessed additionally for ability to block the maturation of proMMP9 to active MMP9 in cultures of human fetal lung fibroblasts (HFL-1, American Type Culture Collection #CCL-153). Unlike rat synoviocytes, HFL-1 cells were unable to process proMMP9 to the active form without addition of neutrophil elastase. […] Rather, the function of elastase in this assay may be to inactivate tissue inhibitors of matrix metalloproteinases (TIMPs) that repress endogenous pathways of MMP9 activation (Am J Respir Crit. Care Med; 1999; 159:1138-46).\nHLF-1 were maintained in monolayer culture in DMEM with 10% FCS and were used between passage numbers 5-15. HLF-1 were embedded in collagen gels as described for rat SCW synoviocytes (vida supra). Half mL gels containing 0.4 million cells were dislodged into wells of 12 well Costar plates containing 1 mL/well of DMEM adjusted to contain 0.05% BSA and 100 ng/mL human TNFα (R&D Systems Cat #210-TA/CF). After overnight culture (37° C. and 5% CO2) wells were adjusted to contain an additional 0.5 mL of DMEM containing 0.05% BSA and with or without 13.2 μM Compound-α (final concentration was 3.3 μM Compound-α). Next, cultures were adjusted to contain 30 nM human elastase (Innovative Research). The plates were cultured an additional 72 hrs, at which time MMP9 secreted into the conditioned media was bound to gelatin-sepharose and evaluated by Western blot analysis as described for the rat synoviocyte cultures (vida supra). mAb-51/82 detected three forms of MMP9 in HFL-1 cultures.\nThese included a form of approximately 100 kD with mobility similar to recombinant rat proMMP9, an approximately 80 kD form with mobility similar to rat active MMP9, and an approximately 86 kD intermediate form. In the absence of Compound-α, most of the MMP9 was present as the 80 kD form. In the presence of Compound-α, the 80 kD form was a minor fraction of the total signal while nearly half of the signal were contributed each by the 100 kD and 86 kD forms. […]\nA second experiment was performed to determine if the 80 kD form was mature active MMP9 and to determine the potency of Compound-α as an inhibitor of MMP9 maturation in this assay. HFL-1 cells embedded in collagen gels were cultured as described above in the presence of TNFα overnight and the cultures were then adjusted to contain 30 nM elastase and graded concentrations of Compound-α for an additional 72 hrs at which time MMP9 secreted into the conditioned media was bound to gelatin-sepharose and evaluated by Western blot analysis for active MMP9 using pAb-1246 raised against the N-terminal neoepitope of active MMP9 (Table 5). In the absence of Compound-α, pAb-1246 readily detected MMP9 with an electrophoretic mobility of approximately 80 kD. […]"}, "[2]": {"test_system": "rats with SCW-induced arthritis", "assay": "Efficacy in rats with SCW-induced arthritis (ankle thickness, clinical score)", "type": "in vivo, rat", "conditions": "for Clinical Scores (0-8), Day 18 (mean): Day 18, start of treatment; for Clinical Scores (0-8), Day 26 (mean): Day 18-26", "description": "A polyarthritis can be induced in female Lewis rats following i.p. administration of streptococcal cell wall (SCW) proteoglycan-polysaccharides (PG-PS) (J Exp Med 1977; 146:1585-1602). The model has an acute phase (days 3-7) that is complement and neutrophil-dependent and that resolves. A chronic erosive phase begins at about day ten and is dependent on the development of specific T cell immunity to the PG-GS, which resists digestion and remains present in synovial macrophages for months. Like rheumatoid arthritis, SCW-induced arthritis is reduced by TNF inhibitors, and the dependence of SCW-induced arthritis on macrophages (Rheumatology; 2001; 40:978-987) and the strong association of rheumatoid arthritis severity with synovial-tissue macrophage counts (Ann Rheum Dis; 2005; 64:834-838) makes SCW-arthritis an attractive model for testing potential therapeutic agents. SCW PG-PS 10S (Beckton Dickinson Cat#210866) suspended in saline was vortexed for 30 seconds and sonicated for 3 min with a probe type sonicator prior to injection. Female Lewis (LEW/N) rats, 5-6 weeks of age (80-100 g) were injected (i.p.) with SCW PG-PS (15 μg of rhamnose/gram BW) in the lower left quadrant of the abdomen using a 1 mL syringe fitted with a 23-gauge needle. Control (disease-free) rats were treated in a similar manner with sterile saline. Control rats were sacrificed on day 5 and groups of SCW-injected rats were sacrificed on day 5 when acute inflammation was maximal or on day 18 when chronic inflammation was established.\nTo induce arthritis, Female Lewis (LEW/N) rats, 5-6 weeks of age (80-100 g) were injected (i.p.) with SCW PG-PS as described above. Eighteen days later, arthritis was well established. Calipers were used to measure the width (anterior to posterior surface) of the left and right hind ankles of each rat. Each ankle was measured 3 times and averaged, and treatment groups were randomized based on ankle thickness (Table 6). Commencing on day 18, randomized groups of arthritic rats (n=5 rats/group) received vehicle or 5, 20, or 50 mg/kg Compound-α BID by oral gavage. Vehicle consisted of an aqueous mixture containing 2% (v:v) N-methylpyrrolidone, 5% (v:v) glycerine, and 20% (w:v) captisol. Treatment continued daily through the morning of day 26.\nBy day 18 mean ankle thickness was increased an average of >4.4 mm compared to disease free rats. Rats treated with vehicle alone continued to gradually develop a more severe arthritis based on ankle thickness measurements over the eight-day treatment period (Table 6). […] By day 26, the disease associated increase in ankle thickness had been reduced 27, 37, and 46 percent by 5, 20, and 50 mg/kg Compound-α, respectively.\nHind paw inflammation clinical scores were assigned based on swelling and erythema."}}}
{"smiles": "Cc1nc(C)c(-c2csc(Nc3cc(S(N)(=O)=O)ccc3OC(C)C)n2)s1", "note": "[Compound-α, 3-(2′,4′-Dimethyl-[4,5′]bithiazolyl-2-ylamino)-4-isopropoxy-benzenesulfonamide.HBr]", "values": [{"measurement": "Percent of total signal, 80 kD", "setting": "[1]", "result": 7, "unit": "%"}, {"measurement": "Percent of total signal, 86 kD", "setting": "[1]", "result": 47, "unit": "%"}, {"measurement": "Percent of total signal, 100 kD", "setting": "[1]", "result": 46, "unit": "%"}, {"measurement": "Signal, Total", "setting": "[1]", "result": 91346, "unit": "INT*mm^2"}, {"measurement": "Clinical Scores (0-8), Day 18 (mean)", "setting": "[2]; 5 mg/kg BID group", "result": 8.00}, {"measurement": "Clinical Scores (0-8), Day 26 (mean)", "setting": "[2]; 5 mg/kg BID", "result": 6.80}, {"measurement": "Clinical Scores (0-8), Day 18 (mean)", "setting": "[2]; 20 mg/kg BID group", "result": 8.00}, {"measurement": "Clinical Scores (0-8), Day 26 (mean)", "setting": "[2]; 20 mg/kg BID", "result": 5.20}, {"measurement": "Clinical Scores (0-8), Day 18 (mean)", "setting": "[2]; 50 mg/kg BID group", "result": 7.80}, {"measurement": "Clinical Scores (0-8), Day 26 (mean)", "setting": "[2]; 50 mg/kg BID", "result": 4.40}]}
